Data reported in patent publication US6914045B2, “Glycopeptide antibiotics” (Wyeth Holdings Corporation, priority 2001, dated 2005).
Values after ≈ are worked out from the molar mass of the structure shown.

Experiments:
Assay in all cases: in vitro antibacterial evaluation, MIC by broth dilution
Format in all cases: cell-based
Staphylococcus sp. = details: broth dilution, 18 hours at 35° C.; for MIC Staphylococcus aureus (GC 1131): strain GC 1131; for MIC Staphylococcus aureus (ATCC 29213): strain ATCC 29213; for MIC Staphylococcus aureus (GC 3051): strain GC 3051; for MIC Staphylococcus aureus (GC 3053): strain GC 3053; for MIC Staphylococcus aureus (GC 4541): strain GC 4541; for MIC Staphylococcus aureus (GC 4542): strain GC 4542; for MIC Staphylococcus aureus-SMITH (GC 4543): strain GC 4543; for MIC Staphylococcus aureus (GC 4544): strain GC 4544; for MIC Staphylococcus aureus (GC 4545): strain GC 4545; for MIC Staphylococcus haemolyticus (GC 4546): strain GC 4546; for MIC Coagulase Negative Staphylococcus (GC 4547): strain GC 4547; for MIC Coagulase Negative Staphylococcus (GC 4548): strain GC 4548; for MIC Coagulase Negative Staphylococcus (GC 4549): strain GC 4549; for MIC Coagulase Negative Staphylococcus (GC 4551): strain GC 4551
Protocol: (§1) Methods for in vitro Antibacterial Evaluation (Table 1)
(§2) The minimum inhibitory concentration (MIC), the lowest concentration of the antibiotic which inhibits growth of the test organism, is determined by the broth dilution method using Muller-Hinton II […] (Baltimore Biological Laboratories) following the recommendations of the National Committee for Clinical Laboratory Standards [Methods for dilution antimicrobial susceptibility tests for bacteria that grow aerobically, approved standard M7-A2, National Committee for Clinical Laboratory Standards, Villanova, Pa.].
(§3) An inoculum level of 5×10^5 CFU/mL, and a range of antibiotic concentrations (64-0.06 μg/mL) is used. […] The test organisms include a spectrum of Gram-positive bacteria comprised of Staphylococcus sp., Streptococcus sp. and Enterococcus sp. These organisms include recent clinical isolates that are resistant to methicillin, penicillin and/or vancomycin.

Enterococcus sp. = details: broth dilution, 18 hours at 35° C.
Protocol: as §1, §2, §3

Streptococcus sp. = details: broth dilution, 18 hours at 35° C.
Protocol: as §1, §2, §3

Escherichia coli = details: 18 hours at 35° C.

CC(c1ccc(Cl)cc1)C1NC(=O)CNC(=O)C(CO)NC(=O)C(C(O)C2CNC(=N)N2C2OC(CO)C(O)C(O)C2O)NC(=O)C(C(O)C2CNC(=N)N2)NC(=O)C(Cc2ccc(OC3OC(CO)C(OC4OC5COC(c6ccccc6)OC5C(O)C4O)C(O)C3O)cc2)NC1=O (stereo not drawn) [Example 195]
MIC Staphylococcus aureus (GC 1131) (Staphylococcus sp.; inoculum 5×10^5 CFU/mL): 0.5 µg/mL (≈ 0.353 µM) | MIC Staphylococcus aureus (ATCC 29213) (Staphylococcus sp.): 0.5 µg/mL (≈ 0.353 µM) | MIC Staphylococcus aureus (GC 1131) (Staphylococcus sp.): 0.5 µg/mL (≈ 0.353 µM) | MIC Staphylococcus aureus (GC 3051) (Staphylococcus sp.): 0.5 µg/mL (≈ 0.353 µM) | MIC Staphylococcus aureus (GC 3053) (Staphylococcus sp.): 0.5 µg/mL (≈ 0.353 µM) | MIC Staphylococcus aureus (GC 4541) (Staphylococcus sp.): 0.5 µg/mL (≈ 0.353 µM) | MIC Staphylococcus aureus (GC 4542) (Staphylococcus sp.): 0.5 µg/mL (≈ 0.353 µM) | MIC Staphylococcus aureus-SMITH (GC 4543) (Staphylococcus sp.): 0.5 µg/mL (≈ 0.353 µM) | MIC Staphylococcus aureus (GC 4544) (Staphylococcus sp.): 0.5 µg/mL (≈ 0.353 µM) | MIC Staphylococcus aureus (GC 4545) (Staphylococcus sp.): 0.5 µg/mL (≈ 0.353 µM) | MIC Staphylococcus haemolyticus (GC 4546) (Staphylococcus sp.): 2 µg/mL (≈ 1.41 µM) | MIC Coagulase Negative Staphylococcus (GC 4547) (Staphylococcus sp.): 4 µg/mL (≈ 2.82 µM) | MIC Coagulase Negative Staphylococcus (GC 4548) (Staphylococcus sp.): 2 µg/mL (≈ 1.41 µM) | MIC Coagulase Negative Staphylococcus (GC 4549) (Staphylococcus sp.): 1 µg/mL (≈ 0.705 µM) | MIC Coagulase Negative Staphylococcus (GC 4551) (Staphylococcus sp.): 4 µg/mL (≈ 2.82 µM) | MIC Coagulase Negative Staphylococcus (GC 6257) (Staphylococcus sp.; strain GC 6257): 2 µg/mL (≈ 1.41 µM) | MIC Enterococcus avium (GC 4558) (Enterococcus sp.): 0.5 µg/mL (≈ 0.353 µM) | MIC Enterococcus faecalis (ATCC 29212) (Enterococcus sp.): 0.5 µg/mL (≈ 0.353 µM) | MIC Enterococcus faecalis (GC 2242) (Enterococcus sp.): 0.5 µg/mL (≈ 0.353 µM) | MIC Enterococcus faecalis (GC 2691) (Enterococcus sp.): 0.5 µg/mL (≈ 0.353 µM) | MIC Enterococcus faecalis (GC 3059) (Enterococcus sp.): 0.5 µg/mL (≈ 0.353 µM) | MIC Enterococcus faecalis (GC 4552) (Enterococcus sp.): 0.5 µg/mL (≈ 0.353 µM) | MIC Enterococcus faecalis (GC 4553) (Enterococcus sp.): 0.5 µg/mL (≈ 0.353 µM) | MIC Enterococcus faecalis (GC 4554) (Enterococcus sp.): 0.5 µg/mL (≈ 0.353 µM) | MIC Enterococcus faecalis (GC 6189) (Enterococcus sp.): 0.5 µg/mL (≈ 0.353 µM) | MIC Enterococcus faecium (GC 2243) (Enterococcus sp.): 0.5 µg/mL (≈ 0.353 µM) | MIC Enterococcus faecium (GC 4556) (Enterococcus sp.): 0.5 µg/mL (≈ 0.353 µM) | MIC Enterococcus faecium (GC 4557) (Enterococcus sp.): 0.5 µg/mL (≈ 0.353 µM) | MIC Enterococcus faecalis (ATCC 29212) (Enterococcus sp.; inoculum 5×10^5 CFU/mL, strain ATCC 29212): 0.5 µg/mL (≈ 0.353 µM) | MIC Enterococcus faecalis (GC 2242) (Enterococcus sp.; inoculum 5×10^5 CFU/mL, strain GC 2242): 0.5 µg/mL (≈ 0.353 µM) | MIC Enterococcus faecium (GC 2243) (Enterococcus sp.; inoculum 5×10^5 CFU/mL, strain GC 2243): 0.5 µg/mL (≈ 0.353 µM) | MIC Enterococcus faecalis (GC 2691) (Enterococcus sp.; inoculum 5×10^5 CFU/mL, strain GC 2691): 0.5 µg/mL (≈ 0.353 µM) | MIC Enterococcus faecalis (GC 3059) (Enterococcus sp.; inoculum 5×10^5 CFU/mL, strain GC 3059): 0.5 µg/mL (≈ 0.353 µM) | MIC Enterococcus faecalis (GC 4552) (Enterococcus sp.; inoculum 5×10^5 CFU/mL, strain GC 4552): 0.5 µg/mL (≈ 0.353 µM) | MIC Enterococcus faecalis (GC 4553) (Enterococcus sp.; inoculum 5×10^5 CFU/mL, strain GC 4553): 0.5 µg/mL (≈ 0.353 µM) | MIC Enterococcus faecalis (GC 4554) (Enterococcus sp.; inoculum 5×10^5 CFU/mL, strain GC 4554): 0.5 µg/mL (≈ 0.353 µM) | MIC Enterococcus faecium (GC 4556) (Enterococcus sp.; inoculum 5×10^5 CFU/mL, strain GC 4556): 0.5 µg/mL (≈ 0.353 µM) | MIC Enterococcus faecium (GC 4557) (Enterococcus sp.; inoculum 5×10^5 CFU/mL, strain GC 4557): 0.5 µg/mL (≈ 0.353 µM) | MIC Enterococcus avium (GC 4558) (Enterococcus sp.; inoculum 5×10^5 CFU/mL, strain GC 4558): 0.5 µg/mL (≈ 0.353 µM) | MIC Enterococcus faecalis (GC 6189) (Enterococcus sp.; inoculum 5×10^5 CFU/mL, strain GC 6189): 0.5 µg/mL (≈ 0.353 µM) | MIC Streptococcus agalactiae (GC 4564) (Streptococcus sp.): 0.5 µg/mL (≈ 0.353 µM) | MIC Streptococcus pneumoniae (ATCC 6301) (Streptococcus sp.): 0.12 µg/mL (≈ 0.0846 µM) | MIC Streptococcus pneumoniae (GC 1894) (Streptococcus sp.): 0.12 µg/mL (≈ 0.0846 µM) | MIC Streptococcus pneumoniae (GC 4565) (Streptococcus sp.): 0.12 µg/mL (≈ 0.0846 µM) | MIC Streptococcus pyogenes (GC 4563) (Streptococcus sp.): 0.12 µg/mL (≈ 0.0846 µM) | MIC Streptococcus pneumoniae (ATCC 6301) (Streptococcus sp.; inoculum 5×10^5 CFU/mL, strain ATCC 6301): 0.12 µg/mL (≈ 0.0846 µM) | MIC Streptococcus pneumoniae (GC 1894) (Streptococcus sp.; inoculum 5×10^5 CFU/mL, strain GC 1894): 0.12 µg/mL (≈ 0.0846 µM) | MIC Streptococcus pyogenes (GC 4563) (Streptococcus sp.; inoculum 5×10^5 CFU/mL, strain GC 4563): 0.12 µg/mL (≈ 0.0846 µM) | MIC Streptococcus agalactiae (GC 4564) (Streptococcus sp.; inoculum 5×10^5 CFU/mL, strain GC 4564): 0.5 µg/mL (≈ 0.353 µM) | MIC Streptococcus pneumoniae (GC 4565) (Streptococcus sp.; inoculum 5×10^5 CFU/mL, strain GC 4565): 0.12 µg/mL (≈ 0.0846 µM) | MIC Escherichia coli (ATCC 25922) (Escherichia coli): >0.5 µg/mL | MIC Escherichia coli (GC 4559) (Escherichia coli): >0.5 µg/mL | MIC Escherichia coli (GC 4560) (Escherichia coli): 0.5 µg/mL (≈ 0.353 µM)

CC(c1ccccc1)C1NC(=O)CNC(=O)C(CO)NC(=O)C(C(O)C2CNC(=N)N2C2OC(CO)C(O)C(O)C2O)NC(=O)C(C(O)C2CNC(=N)N2)NC(=O)C(Cc2ccc3oc(SCc4ccc5ccccc5c4)nc3c2)NC1=O (stereo not drawn) [Example 46]
MIC Staphylococcus aureus (ATCC 29213) (Staphylococcus sp.): 8 µg/mL (≈ 6.85 µM) | MIC Staphylococcus aureus (GC 1131) (Staphylococcus sp.): 8 µg/mL (≈ 6.85 µM) | MIC Staphylococcus aureus (GC 3051) (Staphylococcus sp.): 8 µg/mL (≈ 6.85 µM) | MIC Staphylococcus aureus (GC 3053) (Staphylococcus sp.): 8 µg/mL (≈ 6.85 µM) | MIC Staphylococcus aureus (GC 4541) (Staphylococcus sp.): 8 µg/mL (≈ 6.85 µM) | MIC Staphylococcus aureus (GC 4542) (Staphylococcus sp.): 8 µg/mL (≈ 6.85 µM) | MIC Staphylococcus aureus-SMITH (GC 4543) (Staphylococcus sp.): 4 µg/mL (≈ 3.42 µM) | MIC Staphylococcus aureus (GC 4544) (Staphylococcus sp.): 8 µg/mL (≈ 6.85 µM) | MIC Staphylococcus aureus (GC 4545) (Staphylococcus sp.): 8 µg/mL (≈ 6.85 µM) | MIC Staphylococcus haemolyticus (GC 4546) (Staphylococcus sp.): 8 µg/mL (≈ 6.85 µM) | MIC Coagulase Negative Staphylococcus (GC 4547) (Staphylococcus sp.): 4 µg/mL (≈ 3.42 µM) | MIC Coagulase Negative Staphylococcus (GC 4548) (Staphylococcus sp.): 8 µg/mL (≈ 6.85 µM) | MIC Coagulase Negative Staphylococcus (GC 4549) (Staphylococcus sp.): 2 µg/mL (≈ 1.71 µM) | MIC Coagulase Negative Staphylococcus (GC 4551) (Staphylococcus sp.): 4 µg/mL (≈ 3.42 µM) | MIC Enterococcus faecalis (ATCC 29212) (Enterococcus sp.; strain ATCC 29212): 8 µg/mL (≈ 6.85 µM) | MIC Enterococcus faecalis (GC 2242) (Enterococcus sp.; strain GC 2242): 8 µg/mL (≈ 6.85 µM) | MIC Enterococcus faecium (GC 2243) (Enterococcus sp.; strain GC 2243): 4 µg/mL (≈ 3.42 µM) | MIC Enterococcus faecalis (GC 2691) (Enterococcus sp.; strain GC 2691): 16 µg/mL (≈ 13.7 µM) | MIC Enterococcus faecalis (GC 3059) (Enterococcus sp.; strain GC 3059): 32 µg/mL (≈ 27.4 µM) | MIC Enterococcus faecalis (GC 4552) (Enterococcus sp.; strain GC 4552): 8 µg/mL (≈ 6.85 µM) | MIC Enterococcus faecalis (GC 4553) (Enterococcus sp.; strain GC 4553): 4 µg/mL (≈ 3.42 µM) | MIC Enterococcus faecalis (GC 4554) (Enterococcus sp.; strain GC 4554): 16 µg/mL (≈ 13.7 µM) | MIC Enterococcus faecium (GC 4556) (Enterococcus sp.; strain GC 4556): 16 µg/mL (≈ 13.7 µM) | MIC Enterococcus faecium (GC 4557) (Enterococcus sp.; strain GC 4557): 8 µg/mL (≈ 6.85 µM) | MIC Enterococcus avium (GC 4558) (Enterococcus sp.; strain GC 4558): 4 µg/mL (≈ 3.42 µM) | MIC Enterococcus faecalis (GC 6189) (Enterococcus sp.; strain GC 6189): 16 µg/mL (≈ 13.7 µM) | MIC Streptococcus pneumoniae (ATCC 6301) (Streptococcus sp.; strain ATCC 6301): 8 µg/mL (≈ 6.85 µM) | MIC Streptococcus pneumoniae (GC 1894) (Streptococcus sp.; strain GC 1894): 8 µg/mL (≈ 6.85 µM) | MIC Streptococcus pyogenes (GC 4563) (Streptococcus sp.; strain GC 4563): 1 µg/mL (≈ 0.856 µM) | MIC Streptococcus agalactiae (GC 4564) (Streptococcus sp.; strain GC 4564): 8 µg/mL (≈ 6.85 µM) | MIC Streptococcus pneumoniae (GC 4565) (Streptococcus sp.; strain GC 4565): 8 µg/mL (≈ 6.85 µM) | MIC Escherichia coli (ATCC 25922) (Escherichia coli; strain ATCC 25922, broth dilution): 64 µg/mL (≈ 54.8 µM) | MIC Escherichia coli (GC 4559) (Escherichia coli; strain GC 4559, broth dilution): 64 µg/mL (≈ 54.8 µM) | MIC Escherichia coli (GC 4560) (Escherichia coli; strain GC 4560, broth dilution): 16 µg/mL (≈ 13.7 µM)
